In ChEMBL document CHEMBL5653615 (J Biol Chem, 2013):

Tests used:
[1] = molecular target: Dual specificity protein kinase CLK4 (Homo sapiens) (UniProt Q9HAZ1); conditions: dose 1.82 nM
Description: Inhibition of human CLK4 at 1.82 nM by HotSpot assay relative to control

[2] = molecular target: Tyrosine-protein kinase Lyn (Homo sapiens) (UniProt P07948); assay: Inhibition of human LYN at 1.82 nM by HotSpot assay relative to control
[3] = molecular target: T1, Myotonin-protein kinase (Homo sapiens) (UniProt Q09013); assay: Inhibition of human DMPK at 1.82 nM by HotSpot assay relative to control
T1 sequence (whole entry): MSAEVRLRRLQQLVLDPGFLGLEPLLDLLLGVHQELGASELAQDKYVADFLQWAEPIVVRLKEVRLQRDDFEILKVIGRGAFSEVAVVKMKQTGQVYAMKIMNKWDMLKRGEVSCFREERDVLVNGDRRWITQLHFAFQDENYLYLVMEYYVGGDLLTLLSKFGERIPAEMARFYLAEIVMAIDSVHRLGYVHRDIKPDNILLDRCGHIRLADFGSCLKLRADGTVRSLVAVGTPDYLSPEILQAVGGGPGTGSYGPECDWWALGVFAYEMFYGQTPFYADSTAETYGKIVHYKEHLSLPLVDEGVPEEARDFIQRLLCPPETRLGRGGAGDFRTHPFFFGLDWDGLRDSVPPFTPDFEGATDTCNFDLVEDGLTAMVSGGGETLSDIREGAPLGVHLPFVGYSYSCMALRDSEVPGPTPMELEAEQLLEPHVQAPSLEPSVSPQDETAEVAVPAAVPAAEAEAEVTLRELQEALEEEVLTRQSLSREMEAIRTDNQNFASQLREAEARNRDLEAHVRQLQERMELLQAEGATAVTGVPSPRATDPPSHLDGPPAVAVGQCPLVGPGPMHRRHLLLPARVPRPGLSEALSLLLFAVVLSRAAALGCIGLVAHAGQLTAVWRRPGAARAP

[4] = molecular target: Mast/stem cell growth factor receptor Kit (Homo sapiens) (UniProt P10721); assay: Inhibition of human c-Kit at 1.82 nM by HotSpot assay relative to control
Mast/stem cell growth factor receptor Kit (Homo sapiens), sequence (P10721 whole entry): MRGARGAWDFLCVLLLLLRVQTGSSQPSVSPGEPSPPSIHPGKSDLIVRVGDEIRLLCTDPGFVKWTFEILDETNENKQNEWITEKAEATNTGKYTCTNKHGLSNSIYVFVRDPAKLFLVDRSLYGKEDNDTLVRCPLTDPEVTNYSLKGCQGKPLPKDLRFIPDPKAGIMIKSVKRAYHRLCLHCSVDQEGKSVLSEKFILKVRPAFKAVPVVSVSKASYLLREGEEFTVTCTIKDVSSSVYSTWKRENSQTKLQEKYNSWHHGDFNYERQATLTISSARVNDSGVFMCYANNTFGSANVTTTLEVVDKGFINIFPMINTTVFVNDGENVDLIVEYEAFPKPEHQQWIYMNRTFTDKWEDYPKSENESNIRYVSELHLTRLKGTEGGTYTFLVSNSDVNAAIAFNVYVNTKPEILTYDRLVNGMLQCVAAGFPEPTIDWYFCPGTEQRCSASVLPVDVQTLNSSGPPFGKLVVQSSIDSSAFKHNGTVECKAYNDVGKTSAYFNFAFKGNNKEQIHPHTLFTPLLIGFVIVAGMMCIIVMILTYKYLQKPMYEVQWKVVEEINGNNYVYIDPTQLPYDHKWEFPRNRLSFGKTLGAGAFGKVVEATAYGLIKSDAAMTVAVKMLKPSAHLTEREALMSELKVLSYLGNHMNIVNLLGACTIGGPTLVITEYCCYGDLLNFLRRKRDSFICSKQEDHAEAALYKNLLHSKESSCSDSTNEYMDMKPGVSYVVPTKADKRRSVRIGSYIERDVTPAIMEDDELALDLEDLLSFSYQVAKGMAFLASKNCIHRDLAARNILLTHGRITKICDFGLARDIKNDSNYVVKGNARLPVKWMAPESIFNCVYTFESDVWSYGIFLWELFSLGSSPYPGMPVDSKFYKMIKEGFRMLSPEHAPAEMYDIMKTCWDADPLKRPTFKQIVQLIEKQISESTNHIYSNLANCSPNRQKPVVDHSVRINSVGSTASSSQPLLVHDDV

[5] = molecular target: T2, Activin receptor type-1B (Homo sapiens) (UniProt P36896); assay: Inhibition of human ALK4 at 1.82 nM by HotSpot assay relative to control
T2 sequence (whole entry): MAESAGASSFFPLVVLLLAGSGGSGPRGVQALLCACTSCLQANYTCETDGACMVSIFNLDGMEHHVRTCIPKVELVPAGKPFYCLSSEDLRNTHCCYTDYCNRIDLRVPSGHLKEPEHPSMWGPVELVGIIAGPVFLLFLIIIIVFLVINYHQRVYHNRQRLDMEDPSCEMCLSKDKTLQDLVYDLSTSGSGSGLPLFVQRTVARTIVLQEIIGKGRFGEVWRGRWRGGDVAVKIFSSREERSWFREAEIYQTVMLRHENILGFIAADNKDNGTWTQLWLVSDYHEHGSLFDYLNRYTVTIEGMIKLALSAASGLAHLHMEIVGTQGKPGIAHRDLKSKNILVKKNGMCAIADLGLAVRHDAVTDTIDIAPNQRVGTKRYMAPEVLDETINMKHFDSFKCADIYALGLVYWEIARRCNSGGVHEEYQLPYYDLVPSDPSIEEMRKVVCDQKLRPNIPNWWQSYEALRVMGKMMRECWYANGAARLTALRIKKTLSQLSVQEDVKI

[6] = molecular target: Activated CDC42 kinase 1 (Homo sapiens) (UniProt Q07912); assay: Inhibition of human ACK1 at 1.82 nM by HotSpot assay relative to control
Activated CDC42 kinase 1 (Homo sapiens), sequence (Q07912 whole entry, looked up): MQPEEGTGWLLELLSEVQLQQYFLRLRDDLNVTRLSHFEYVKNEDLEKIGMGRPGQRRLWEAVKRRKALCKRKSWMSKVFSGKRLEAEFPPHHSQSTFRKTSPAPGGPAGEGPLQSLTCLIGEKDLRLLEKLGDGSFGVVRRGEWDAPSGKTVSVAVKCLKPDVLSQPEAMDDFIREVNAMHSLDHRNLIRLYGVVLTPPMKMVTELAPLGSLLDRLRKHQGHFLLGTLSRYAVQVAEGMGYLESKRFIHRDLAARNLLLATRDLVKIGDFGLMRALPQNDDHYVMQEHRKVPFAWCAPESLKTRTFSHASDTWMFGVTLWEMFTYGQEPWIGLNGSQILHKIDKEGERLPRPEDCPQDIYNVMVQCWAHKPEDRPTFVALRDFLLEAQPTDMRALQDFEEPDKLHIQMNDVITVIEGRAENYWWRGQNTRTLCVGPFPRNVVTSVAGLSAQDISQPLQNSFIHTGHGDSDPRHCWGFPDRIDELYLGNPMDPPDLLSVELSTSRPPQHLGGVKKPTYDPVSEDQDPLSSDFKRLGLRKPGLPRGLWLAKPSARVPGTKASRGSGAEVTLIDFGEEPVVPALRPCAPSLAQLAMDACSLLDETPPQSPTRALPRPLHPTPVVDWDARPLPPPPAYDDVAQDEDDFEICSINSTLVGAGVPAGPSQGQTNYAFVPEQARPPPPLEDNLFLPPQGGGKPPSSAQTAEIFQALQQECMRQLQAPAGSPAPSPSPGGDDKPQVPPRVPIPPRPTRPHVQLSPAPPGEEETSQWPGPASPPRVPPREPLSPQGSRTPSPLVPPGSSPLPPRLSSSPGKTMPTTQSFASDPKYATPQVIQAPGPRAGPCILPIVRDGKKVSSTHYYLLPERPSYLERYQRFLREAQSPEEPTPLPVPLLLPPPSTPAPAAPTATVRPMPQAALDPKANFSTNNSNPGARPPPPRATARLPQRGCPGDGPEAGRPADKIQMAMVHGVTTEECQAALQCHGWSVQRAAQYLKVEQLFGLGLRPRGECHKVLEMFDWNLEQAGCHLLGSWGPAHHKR

[7] = molecular target: T3, cGMP-dependent protein kinase 1 (Homo sapiens) (UniProt Q13976); assay: Inhibition of human PKG1b at 18.6 nM by HotSpot assay relative to control
T3 sequence (whole entry): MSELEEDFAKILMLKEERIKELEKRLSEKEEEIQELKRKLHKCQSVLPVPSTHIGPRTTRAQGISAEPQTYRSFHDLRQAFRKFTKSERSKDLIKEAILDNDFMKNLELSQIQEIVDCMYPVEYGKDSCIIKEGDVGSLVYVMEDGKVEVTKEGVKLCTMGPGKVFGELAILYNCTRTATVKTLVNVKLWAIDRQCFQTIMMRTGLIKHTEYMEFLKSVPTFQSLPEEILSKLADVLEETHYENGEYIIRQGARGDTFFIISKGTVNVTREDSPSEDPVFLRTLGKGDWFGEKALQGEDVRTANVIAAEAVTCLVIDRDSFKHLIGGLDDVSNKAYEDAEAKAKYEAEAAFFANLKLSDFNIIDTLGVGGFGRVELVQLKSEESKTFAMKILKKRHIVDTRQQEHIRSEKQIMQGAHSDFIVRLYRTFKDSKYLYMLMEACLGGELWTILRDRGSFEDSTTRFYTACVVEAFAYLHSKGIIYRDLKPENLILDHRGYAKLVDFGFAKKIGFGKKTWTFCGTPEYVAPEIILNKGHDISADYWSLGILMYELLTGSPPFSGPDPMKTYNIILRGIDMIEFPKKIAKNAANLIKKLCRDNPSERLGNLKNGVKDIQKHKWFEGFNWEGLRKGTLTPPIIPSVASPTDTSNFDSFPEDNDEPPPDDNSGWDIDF

[8] = molecular target: Calcium/calmodulin-dependent protein kinase type 1D (Homo sapiens) (UniProt Q8IU85); assay: Inhibition of human CAMK1d at 18.6 nM by HotSpot assay relative to control
Calcium/calmodulin-dependent protein kinase type 1D (Homo sapiens), sequence (Q8IU85 whole entry, looked up): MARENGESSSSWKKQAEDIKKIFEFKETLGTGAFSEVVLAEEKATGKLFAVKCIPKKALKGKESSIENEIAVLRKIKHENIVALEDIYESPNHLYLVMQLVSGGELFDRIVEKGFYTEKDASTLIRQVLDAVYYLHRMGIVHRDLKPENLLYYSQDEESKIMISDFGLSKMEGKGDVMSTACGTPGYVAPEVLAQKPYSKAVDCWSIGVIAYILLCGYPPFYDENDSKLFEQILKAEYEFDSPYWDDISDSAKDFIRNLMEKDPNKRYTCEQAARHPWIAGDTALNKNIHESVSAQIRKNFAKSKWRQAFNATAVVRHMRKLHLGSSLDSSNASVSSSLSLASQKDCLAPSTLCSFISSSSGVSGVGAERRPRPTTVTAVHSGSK

[9] = molecular target: T4, Mitogen-activated protein kinase 12 (Homo sapiens) (UniProt P53778); assay: Inhibition of human P38g at 18.6 nM by HotSpot assay relative to control
T4 sequence (whole entry): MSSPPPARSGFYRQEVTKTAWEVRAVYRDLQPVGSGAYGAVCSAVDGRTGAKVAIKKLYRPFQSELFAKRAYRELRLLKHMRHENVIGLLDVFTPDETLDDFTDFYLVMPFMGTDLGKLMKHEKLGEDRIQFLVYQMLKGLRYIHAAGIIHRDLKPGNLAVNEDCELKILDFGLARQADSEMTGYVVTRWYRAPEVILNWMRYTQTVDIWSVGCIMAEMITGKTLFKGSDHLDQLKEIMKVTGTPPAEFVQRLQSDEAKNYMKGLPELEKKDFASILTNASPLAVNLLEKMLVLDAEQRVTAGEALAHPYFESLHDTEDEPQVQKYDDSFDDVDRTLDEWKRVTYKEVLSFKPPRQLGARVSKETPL

[10] = molecular target: Receptor tyrosine-protein kinase erbB-2 (Homo sapiens) (UniProt P04626); assay: Inhibition of human ERBB2 at 18.6 nM by HotSpot assay relative to control
Receptor tyrosine-protein kinase erbB-2 (Homo sapiens), sequence (P04626 whole entry): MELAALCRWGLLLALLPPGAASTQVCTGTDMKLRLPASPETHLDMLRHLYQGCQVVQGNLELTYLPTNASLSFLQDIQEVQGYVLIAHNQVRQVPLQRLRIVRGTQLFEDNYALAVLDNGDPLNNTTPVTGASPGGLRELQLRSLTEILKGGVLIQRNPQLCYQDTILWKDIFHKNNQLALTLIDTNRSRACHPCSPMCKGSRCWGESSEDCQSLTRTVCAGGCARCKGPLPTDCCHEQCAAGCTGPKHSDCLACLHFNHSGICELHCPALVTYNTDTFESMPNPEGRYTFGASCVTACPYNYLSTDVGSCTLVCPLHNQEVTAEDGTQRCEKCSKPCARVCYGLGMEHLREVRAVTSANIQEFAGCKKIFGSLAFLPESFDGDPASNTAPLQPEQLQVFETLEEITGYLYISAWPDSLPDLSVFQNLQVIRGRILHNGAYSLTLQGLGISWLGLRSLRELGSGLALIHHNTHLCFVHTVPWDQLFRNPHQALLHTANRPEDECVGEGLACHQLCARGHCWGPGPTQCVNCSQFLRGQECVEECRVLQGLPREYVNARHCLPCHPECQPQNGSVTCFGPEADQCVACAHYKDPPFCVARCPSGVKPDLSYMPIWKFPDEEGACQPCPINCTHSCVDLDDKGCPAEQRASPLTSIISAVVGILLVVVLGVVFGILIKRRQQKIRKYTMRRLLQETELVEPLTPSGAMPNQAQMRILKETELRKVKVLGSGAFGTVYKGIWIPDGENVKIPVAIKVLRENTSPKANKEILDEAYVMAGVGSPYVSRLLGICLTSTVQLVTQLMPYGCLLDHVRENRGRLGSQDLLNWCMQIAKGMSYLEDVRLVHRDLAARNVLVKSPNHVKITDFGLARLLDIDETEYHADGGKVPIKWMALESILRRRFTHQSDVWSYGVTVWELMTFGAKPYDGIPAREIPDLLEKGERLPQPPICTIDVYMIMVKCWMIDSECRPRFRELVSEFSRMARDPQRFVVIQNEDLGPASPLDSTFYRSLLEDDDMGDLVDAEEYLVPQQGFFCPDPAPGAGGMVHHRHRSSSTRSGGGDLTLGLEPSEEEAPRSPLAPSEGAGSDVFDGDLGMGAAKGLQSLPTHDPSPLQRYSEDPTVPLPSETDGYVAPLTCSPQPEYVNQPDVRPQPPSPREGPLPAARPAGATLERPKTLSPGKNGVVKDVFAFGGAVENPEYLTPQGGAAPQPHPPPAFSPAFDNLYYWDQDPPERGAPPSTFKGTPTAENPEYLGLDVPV

Dual specificity protein kinase CLK4 (Homo sapiens), sequence (Q9HAZ1 whole entry, looked up): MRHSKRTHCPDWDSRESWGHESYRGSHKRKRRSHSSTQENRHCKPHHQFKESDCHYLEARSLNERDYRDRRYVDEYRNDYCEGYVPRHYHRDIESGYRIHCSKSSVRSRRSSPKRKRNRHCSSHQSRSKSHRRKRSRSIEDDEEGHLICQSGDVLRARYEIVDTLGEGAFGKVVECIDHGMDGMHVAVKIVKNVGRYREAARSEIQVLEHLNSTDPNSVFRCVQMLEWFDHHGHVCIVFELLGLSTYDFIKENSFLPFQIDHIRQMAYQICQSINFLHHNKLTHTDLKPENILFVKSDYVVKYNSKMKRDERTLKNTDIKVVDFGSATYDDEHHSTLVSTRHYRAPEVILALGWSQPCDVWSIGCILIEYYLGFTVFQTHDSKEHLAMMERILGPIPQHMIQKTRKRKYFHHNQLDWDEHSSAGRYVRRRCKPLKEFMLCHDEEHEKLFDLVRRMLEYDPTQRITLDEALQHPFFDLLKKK
Tyrosine-protein kinase Lyn (Homo sapiens), sequence (P07948 2-512 limits assumed): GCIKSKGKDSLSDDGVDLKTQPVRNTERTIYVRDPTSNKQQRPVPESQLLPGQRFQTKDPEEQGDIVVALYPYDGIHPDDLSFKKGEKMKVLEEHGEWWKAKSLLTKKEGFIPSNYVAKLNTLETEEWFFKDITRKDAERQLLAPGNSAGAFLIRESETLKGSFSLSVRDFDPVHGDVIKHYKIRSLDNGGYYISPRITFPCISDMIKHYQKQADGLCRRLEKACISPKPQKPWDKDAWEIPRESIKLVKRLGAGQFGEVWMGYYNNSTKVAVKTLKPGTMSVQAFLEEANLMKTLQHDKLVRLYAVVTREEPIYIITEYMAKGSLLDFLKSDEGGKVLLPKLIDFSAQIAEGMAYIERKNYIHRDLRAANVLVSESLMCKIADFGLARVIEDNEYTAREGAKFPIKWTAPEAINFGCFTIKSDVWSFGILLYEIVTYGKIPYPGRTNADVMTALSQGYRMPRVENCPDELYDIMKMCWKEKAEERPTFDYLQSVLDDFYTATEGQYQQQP

C[C@@]1(C(=O)Nc2ccc(F)nc2)CCCN1c1nc(Nc2cc(C3CC3)n[nH]2)c2cccn2n1
inhibition [1]: -10% | inhibition [2]: 3.66% | inhibition [3]: 2.2% | inhibition [4]: 2.48% | inhibition [5]: 0.66% | inhibition [6]: 3.55%

C[C@]1(O)C[C@@H](c2nc(-c3ccc4ccc(-c5ccccc5)nc4c3)c3c(N)nccn32)C1
inhibition [7]: -6.35% | inhibition [8]: -0.1% | inhibition [9]: -7.84% | inhibition [10]: 1.71%
